Measurements as given in patent publication US20230114728A1 (Venatorx Pharmaceuticals, Inc., priority 2019, published 2023).
Values after ≈ are worked out from the molar mass of the structure shown.

Legend:
E. coli AG100 = assay: Broth microdilution MIC in CAMHB; format: cell-based; details: Escherichia coli; MHB; wild-type parent strain E. coli AG100; read-out: Minimum Inhibitory Concentration, E. coli AG100
Protocol: (§1) Example III: In Vitro Antibacterial Assays
(§2) To determine the ability of test compounds to inhibit the growth of bacterial strains, classic cell based broth microdilution minimum inhibitory concentration (MIC) assays were employed. MIC assays are performed according to CLSI methods except where otherwise noted (CLSI, 2018 and CLSI, 2019). The reference type strain E. coli ATCC 25922; the wild-type parent strain E. coli AG100; the hyper-permeable E. coli 901C and E. coli D22; and the E. coli AG100A strain lacking the acrAB efflux pump encoding genes were used to determine the ability of the PBP inhibitors to penetrate the outer membrane of gram-negative bacteria and inhibit bacterial growth. […] The P. aeruginosa ATCC 27853 and A. baumannii ATCC 19606, along with the hyper-permeable P. aeruginosa ATCC 35151 and an engineered efflux pump-compromised strain of P. aeruginosa (ΔmexAB-oprM) were used to determine the ability of PBP inhibitors to penetrate the outer membrane of P. aeruginosa and A. baumannii and assess antibacterial activity against these important gram-negative organisms.
(§3) Briefly, cryo-preserved bacterial cultures of challenge strains are streaked for isolation on appropriate agar medium, in this case cation-adjusted Mueller Hinton agar. Following incubation to allow growth of the colonies, plates are sealed with parafilm and stored refrigerated for up to two weeks. For preparation of assay inoculum and to ensure low variability, at least 5 colonies are picked from the agar plates with an inoculating loop and aseptically transferred to a culture tube containing 3 mL of cation-adjusted Mueller Hinton broth (CAMHB). The broth culture is grown for 3-5 hours at 37° C. with shaking at 200 rpm. Meanwhile, 2-fold serial dilutions of test compounds are conducted in a 96-well plate with a final volume of 75 μL per well at 2-fold the final desired concentration. After the dilution plates are set up the growing cultures are then diluted in a cuvette containing CAMHB and the optical density is measured at 600 nm. The inoculum is diluted such that 75 μL of this culture in CAMHB results in a starting bacterial concentration of 2-8×10^5 CFU/mL when added to the dilution plates. The plates are incubated for 16-20 hours for Enterobacteriaceae and Pseudomonas and 20-24 hours for Acinetobacter at 37° C. The MIC values are read visually as the lowest concentration well with no bacterial growth.

P. aeruginosa ATCC 27853 = assay: Broth microdilution MIC in CAMHB; format: cell-based; details: Pseudomonas aeruginosa, ATCC27853; MHB; read-out: Minimum Inhibitory Concentration, P. aeruginosa ATCC 27853
Protocol: as §1, §2, §3

[1] = system: K. pneumoniae SI-117 producing VIM-1; assay: Broth microdilution MIC in CAMHB; format: cell-based; details: Klebsiella pneumoniae, read-out: Minimum Inhibitory Concentration, K. pneumoniae SI-117
Protocol: as §1, §2, §3

E. coli ATCC 25922 = assay: Broth microdilution MIC in CAMHB; format: cell-based; details: Escherichia coli, ATCC25922; MHB; E. coli ATCC 25922; read-out: Minimum Inhibitory Concentration, E. coli 25922
Protocol: as §1, §2, §3

[2] = system: K. pneumoniae 848844 producing SHV-11 and KPC-2; assay: Broth microdilution MIC in CAMHB; format: cell-based; details: Klebsiella pneumoniae, read-out: Minimum Inhibitory Concentration, K. pneumoniae 848844
Protocol: as §1, §2, §3

A. baumannii ATCC 19606 = assay: Broth microdilution MIC in CAMHB; format: cell-based; details: Acinetobacter baumannii, ATCC19606; MHB; read-out: Minimum Inhibitory Concentration, A. baumannii ATCC 19606
Protocol: as §1, §2, §3

E. coli D22 = assay: Broth microdilution MIC in CAMHB; format: cell-based; details: Escherichia coli; MHB; hyper-permeable E. coli D22; read-out: Minimum Inhibitory Concentration, E. coli D22
Protocol: as §1, §2, §3

E. coli 901C = assay: Broth microdilution MIC in CAMHB; format: cell-based; details: Escherichia coli; MHB; hyper-permeable E. coli 901C; read-out: Minimum Inhibitory Concentration, E. coli 901C
Protocol: as §1, §2, §3

P. aeruginosa ATCC 35151 = assay: Broth microdilution MIC in CAMHB; format: cell-based; details: Pseudomonas aeruginosa, ATCC35151; MHB; hyper-permeable strain; read-out: Minimum Inhibitory Concentration, P. aeruginosa ATCC 35151
Protocol: as §1, §2, §3

E. coli AG100A = assay: Broth microdilution MIC in CAMHB; format: cell-based; details: Escherichia coli, read-out: Minimum Inhibitory Concentration, E. coli AG100A
Protocol: as §1, §2, §3

[3] = system: P. aeruginosa (ΔmexAB-oprM); assay: Broth microdilution MIC in CAMHB; format: cell-based; details: Pseudomonas aeruginosa, read-out: Minimum Inhibitory Concentration, P. aeruginosa ΔmexAB-OprM
Protocol: as §1, §2, §3

[4] = system: K. pneumoniae UMM producing SHV-5 and KPC-2; assay: Broth microdilution MIC in CAMHB; format: cell-based; details: Klebsiella pneumoniae, read-out: Minimum Inhibitory Concentration, K. pneumoniae UMM
Protocol: as §1, §2, §3

P. aeruginosa PBP3 = molecular target: T1, P. aeruginosa PBP3 (Pseudomonas aeruginosa, UniProt G3XD46); assay: Bocillin-FL fluorescence polarization competition binding assay, P. aeruginosa PBP3; details: P. aeruginosa PBP3; assay validation with beta-lactams; read-out: EC50 (concentration of beta-lactam required to reduce the amount of PBP bound-Bocillin-FL by 50%)
T1 construct: made in house
From the text: Example I: Experimental Method for Penicillin-Binding Protein Binding Assays with Bocillin-FL Via Fluorescence Polarization
To determine the ability of boronic acid-based test PBP inhibitors to bind Penicillin Binding Proteins (PBPs), Bocillin-FL (fluorescently-labeled penicillin V; ThermoFisher Scientific) was used in a fluorescence polarization (FP) competition binding assay to assess inhibitor binding to PBP2, PBP3 or PBP4 from Escherichia coli (K12), PBP3 from Pseudomonas aeruginosa (PA01), PBP1a, PBP2 and PBP3 from Acinetobacter baumannii (ATCC 19606), and PBP2 from Neiserria gonorrheae (FA19). PBPs were cloned and purified as described previously (E. coli PBPs, King, D. T, et al., ACS Infectious Diseases 2015, 1, 175-184; P. aeruginosa PBP3, Han et. al., PNAS 2010, 107 (51), 22002-22007; A. baumannii PBPs, Penwell et. al., Antimicrob. Agents Chemother. 2015, 59 (3), 1680-1689; N. gonorrhoeae PBP2, Singh et. al., J Biol. Chem. 2019, 294 (38), 14020-14032). To establish assay conditions for competition binding, enzyme titration/saturation binding experiments were initially performed. Bocillin-FL was prepared at 0.2 μM in a buffer comprised of 50 mM Hepes (pH 8.0), 300 mM NaCl and 5% (v/v) glycerol for reactions with E. coli, P. aeruginosa and N. gonorrhoeae PBPs, and 25 mM Tris (pH 8.0), 200 mM NaCl and 10% (v/v) glycerol and 0.005% (v/v) Tween 20 for reactions with A. baumannii PBPs. Saturation binding was performed by mixing 40 μl of PBP solutions ranging in concentrations from 0-24 μM with 40 μl of the 0.2 μM Bocillin-FL solution, in individual wells of a black 384-well microplate. FP was measured immediately upon mixing (Excitation, 490 nm; Emission, 520 nm; g-factor, 0.96), using a Cytation3 (BioTek) microplate reader and measured continuously for up to 120 minutes. […] The competition binding assay (80 μl final volume) was validated using beta-lactams and PBPs at final concentrations of: 1.5 μM, E. coli PBP3; 0.75 μM, P. aeruginosa PBP3; 1 μM A. baumannii PBP1a; 2.5 μM A. baumannii PBP2; 0.2 μM A. baumannii PBP3; and […] N. gonorrhoeae PBP2. Bocillin-FL was at 0.1 μM (0.05 μM with A. baumannii PBP1a) and beta-lactam concentrations ranged from 0-1000 μM. […] Bocillin-FL was added and the FP immediately measured for up to 60 minutes (90 minutes for E. coli PBP2). […] The beta-lactam potency was reported as the concentration of beta-lactam required to reduce the amount of PBP bound-Bocillin-FL by 50% (EC50). […] Binding assays for boronic acid PBP inhibitors were performed in an identical fashion for the respective PBPs

T1 sequence (G3XD46 whole entry): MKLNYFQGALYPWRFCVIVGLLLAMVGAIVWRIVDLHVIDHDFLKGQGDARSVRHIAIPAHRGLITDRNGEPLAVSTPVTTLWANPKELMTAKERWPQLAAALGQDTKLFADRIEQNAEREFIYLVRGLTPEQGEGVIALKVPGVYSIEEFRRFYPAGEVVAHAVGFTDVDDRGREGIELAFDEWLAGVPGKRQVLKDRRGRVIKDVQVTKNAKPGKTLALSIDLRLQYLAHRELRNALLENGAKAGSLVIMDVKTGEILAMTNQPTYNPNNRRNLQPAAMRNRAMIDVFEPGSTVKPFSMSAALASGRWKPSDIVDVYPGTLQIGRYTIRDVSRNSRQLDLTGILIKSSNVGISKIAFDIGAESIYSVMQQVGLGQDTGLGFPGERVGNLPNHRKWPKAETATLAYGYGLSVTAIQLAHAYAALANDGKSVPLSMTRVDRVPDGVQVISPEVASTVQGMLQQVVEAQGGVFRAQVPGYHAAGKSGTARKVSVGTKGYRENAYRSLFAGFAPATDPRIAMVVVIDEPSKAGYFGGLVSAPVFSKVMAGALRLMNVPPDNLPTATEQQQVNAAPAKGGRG

SMILES	MIC (E. coli AG100)	MIC (P. aeruginosa ATCC 27853)	MIC [1]	MIC (E. coli ATCC 25922)	MIC [2]	MIC (A. baumannii ATCC 19606)	MIC (E. coli D22)	MIC (E. coli 901C)	MIC (P. aeruginosa ATCC 35151)	MIC (E. coli AG100A)	MIC [3]	MIC [4]	EC50 (P. aeruginosa PBP3)
O=C(O)c1cccc2c1OB(O)[C@@H](NC(=O)C(NC(=O)N1CCN(CCBr)C(=O)C1=O)c1ccc(O)c(F)c1F)C2 (stereo partly drawn) [Example 249, (3R)-3-(2-(4-(2-bromoethyl)-2,3-dioxopiperazine-1-carboxamido)-2-(2,3-difluoro-4-hydroxyphenyl)acetamido)-2-hydroxy-3,4-dihydro-2H-benzo[e][1,2]oxaborinine-8-carboxylic acid]	> 128 µg/mL	> 128 µg/mL	2 to 4 µg/mL (≈ 3.13 to 6.26 µM)	32 to 64 µg/mL (≈ 50.1 to 100 µM)	32 to 64 µg/mL (≈ 50.1 to 100 µM)	> 128 µg/mL	32 to 64 µg/mL (≈ 50.1 to 100 µM)	> 128 µg/mL	0.5 to 1 µg/mL (≈ 0.782 to 1.56 µM)	32 to 64 µg/mL (≈ 50.1 to 100 µM)	8 to 16 µg/mL (≈ 12.5 to 25 µM)	< 0.25 µg/mL	
CCN1CCN(C(=O)NC(C(=O)N[C@H]2Cc3cccc(C(=O)O)c3OB2O)c2ccc(P(=O)(O)O)cc2)C(=O)C1=O (stereo partly drawn) [Example 250, (3R)-3-(2-(4-ethyl-2,3-dioxopiperazine-1-carboxamido)-2-(4-phosphonophenyl)acetamido)-2-hydroxy-3,4-dihydro-2H-benzo[e][1,2]oxaborinine-8-carboxylic acid]	> 128 µg/mL	> 128 µg/mL	2 to 4 µg/mL (≈ 3.4 to 6.8 µM)	32 to 64 µg/mL (≈ 54.4 to 109 µM)	> 128 µg/mL	32 to 64 µg/mL (≈ 54.4 to 109 µM)	32 to 64 µg/mL (≈ 54.4 to 109 µM)	> 128 µg/mL	2 to 4 µg/mL (≈ 3.4 to 6.8 µM)	> 128 µg/mL	8 to 16 µg/mL (≈ 13.6 to 27.2 µM)	< 0.25 µg/mL	
NCCCN1CCN(C(=O)N[C@H](C(=O)N[C@H]2Cc3cccc(C(=O)O)c3OB2O)c2cc(F)c(O)c(F)c2F)C(=O)C1=O (single isomer, unassigned) [Example 247]		8 to 16 µg/mL (≈ 13.2 to 26.3 µM)				> 128 µg/mL			< 0.25 µg/mL		2 to 4 µg/mL (≈ 3.29 to 6.59 µM)		
C[C@H]1[C@H](NC(=O)/C(=N\OC(C)(C)C(=O)O)c2csc(N)n2)C(=O)N1S(=O)(=O)O [aztreonam, reference compound]													< 0.5 µM
